Legend:
Assay type in all cases: biochemical
PI3Kδ = target: T1, PI3Kδ (Homo sapiens, UniProt O00329); assay: PI3 Kinase HTRF assay, PI3Kδ; settings: 10 μM PIP2, 10 μM ATP; read-out: PI3K δ IC50
T1 construct: purchased Millipore Corporation 14-604-K
Text: (§1) A PI3 Kinase HTRF® assay kit (cat No. 33-016) purchased from Millipore Corporation was used to screen compounds disclosed herein. This assay used specific, high affinity binding of the GRP1 pleckstrin homology (PH) domain to PIP3, the product of a Class 1A or 1B PI3 Kinase acting on its physiological substrate PIP2. During the detection phase of the assay, a complex was generated between the GST-tagged PH domain and biotinylated short chain PIP3. The biotinylated PIP3 and the GST-tagged PH domain recruited fluorophores (Streptavidin-Allophycocyanin and Europium-labeled anti-GST respectively) to form the fluorescence resonance energy transfer (FRET) architecture, generating a stable time-resolved FRET signal. The FRET complex was disrupted in a competitive manner by non-biotinylated PIP3, a product formed in the PI3 Kinase assay.
(§2) PI3 Kinase α, β, γ and δ activity was assayed using the PI3 Kinase HTRF® assay kit (catalogue No. 33-016) purchased from Millipore Corporation. Purified recombinant PI3Kα (catalogue No. 14-602-K), PI3Kβ (catalogue No. 14-603-K), PI3Kγ (catalogue No. 14-558-K) and PI3Kδ (catalogue No. 14-604-K) were obtained from Millipore Corporation. Purified recombinant PI3K enzyme was used to catalyze the phosphorylation of phosphatidylinositol 4,5-bisphosphate (PIP2 at 10 μM) to phosphatidylinositol 3,4,5-trisphosphate (PIP3) in the presence of 10 μM ATP. The assay was carried out in 384-well format and detected using a Perkin Elmer En Vision Xcite Multilabel Reader. Emission ratios were converted into percent inhibitions and imported into GraphPad Prism software. The concentration necessary to achieve inhibition of enzyme activity by 50% (IC50) was calculated using concentrations ranging from 20 μM to 0.1 nM (12-point curve). IC50 values were determined using a nonlinear regression model available in GraphPad Prism 5. […]

PI3Kγ = target: T2, PI3Kγ (Homo sapiens, UniProt P48736); assay: PI3 Kinase HTRF assay, PI3Kγ; settings: 10 μM PIP2, 10 μM ATP; read-out: PI3K γ IC50
T2 construct: purchased Millipore Corporation 14-558-K
T2 sequence (P48736 whole entry): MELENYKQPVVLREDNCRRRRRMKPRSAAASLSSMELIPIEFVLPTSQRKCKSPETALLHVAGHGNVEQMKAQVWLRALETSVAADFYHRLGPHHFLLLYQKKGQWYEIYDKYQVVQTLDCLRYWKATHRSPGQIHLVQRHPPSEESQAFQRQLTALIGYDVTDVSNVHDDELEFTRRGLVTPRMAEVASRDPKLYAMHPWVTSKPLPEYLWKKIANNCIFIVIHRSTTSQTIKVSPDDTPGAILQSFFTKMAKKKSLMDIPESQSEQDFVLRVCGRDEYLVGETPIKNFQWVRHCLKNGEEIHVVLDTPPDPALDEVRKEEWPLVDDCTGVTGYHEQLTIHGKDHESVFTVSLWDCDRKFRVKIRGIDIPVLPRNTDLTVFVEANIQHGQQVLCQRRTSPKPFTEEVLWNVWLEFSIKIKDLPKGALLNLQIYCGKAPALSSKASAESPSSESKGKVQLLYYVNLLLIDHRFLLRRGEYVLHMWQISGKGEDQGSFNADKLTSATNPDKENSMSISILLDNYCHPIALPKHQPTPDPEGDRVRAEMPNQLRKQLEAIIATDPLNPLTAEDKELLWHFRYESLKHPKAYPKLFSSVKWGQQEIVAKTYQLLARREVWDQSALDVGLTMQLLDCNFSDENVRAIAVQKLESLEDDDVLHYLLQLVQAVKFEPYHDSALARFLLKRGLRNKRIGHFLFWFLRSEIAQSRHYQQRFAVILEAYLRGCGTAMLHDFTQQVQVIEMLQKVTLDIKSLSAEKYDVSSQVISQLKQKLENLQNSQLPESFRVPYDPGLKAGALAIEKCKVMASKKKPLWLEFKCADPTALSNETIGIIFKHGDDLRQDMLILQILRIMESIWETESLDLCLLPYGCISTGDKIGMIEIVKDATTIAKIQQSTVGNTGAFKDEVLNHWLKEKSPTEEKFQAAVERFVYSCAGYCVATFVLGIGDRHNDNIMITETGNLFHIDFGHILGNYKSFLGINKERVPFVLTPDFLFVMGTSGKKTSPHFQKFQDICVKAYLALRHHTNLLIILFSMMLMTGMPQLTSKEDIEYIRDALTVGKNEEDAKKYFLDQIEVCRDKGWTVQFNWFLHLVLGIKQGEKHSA
Text: as §1, §2

PI3Kα = target: T3, PI3Kα (Homo sapiens, UniProt P42336); assay: PI3 Kinase HTRF assay, PI3Kα; settings: 10 μM PIP2, 10 μM ATP; read-out: PI3K α IC50
T3 construct: purchased Millipore Corporation 14-602-K
T3 sequence (P42336 whole entry): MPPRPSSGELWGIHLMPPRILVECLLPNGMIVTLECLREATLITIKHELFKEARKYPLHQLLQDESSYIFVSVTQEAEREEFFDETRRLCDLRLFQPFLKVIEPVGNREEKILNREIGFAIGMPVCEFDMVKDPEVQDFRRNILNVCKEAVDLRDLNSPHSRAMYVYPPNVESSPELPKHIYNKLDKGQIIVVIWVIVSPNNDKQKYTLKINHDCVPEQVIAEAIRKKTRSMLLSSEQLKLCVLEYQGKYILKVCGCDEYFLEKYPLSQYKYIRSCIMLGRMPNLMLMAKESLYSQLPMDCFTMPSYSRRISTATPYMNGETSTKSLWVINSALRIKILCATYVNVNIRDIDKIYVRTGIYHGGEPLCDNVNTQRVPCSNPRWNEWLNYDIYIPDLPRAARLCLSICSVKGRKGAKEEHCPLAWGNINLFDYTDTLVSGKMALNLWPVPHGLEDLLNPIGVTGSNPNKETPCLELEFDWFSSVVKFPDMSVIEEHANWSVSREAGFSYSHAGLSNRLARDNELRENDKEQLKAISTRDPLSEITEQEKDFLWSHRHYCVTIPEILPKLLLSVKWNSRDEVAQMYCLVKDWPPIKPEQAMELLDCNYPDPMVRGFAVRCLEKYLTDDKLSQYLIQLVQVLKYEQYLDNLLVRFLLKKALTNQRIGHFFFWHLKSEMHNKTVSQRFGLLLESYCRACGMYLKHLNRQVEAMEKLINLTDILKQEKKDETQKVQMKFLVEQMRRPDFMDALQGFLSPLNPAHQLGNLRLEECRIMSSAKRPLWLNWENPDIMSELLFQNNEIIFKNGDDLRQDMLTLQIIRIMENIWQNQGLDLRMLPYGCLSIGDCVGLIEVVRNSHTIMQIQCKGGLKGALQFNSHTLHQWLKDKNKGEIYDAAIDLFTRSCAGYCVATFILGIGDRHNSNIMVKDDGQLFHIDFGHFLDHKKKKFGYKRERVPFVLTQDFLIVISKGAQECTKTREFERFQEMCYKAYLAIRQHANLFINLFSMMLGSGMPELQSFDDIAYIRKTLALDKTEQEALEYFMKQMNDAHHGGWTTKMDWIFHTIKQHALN
T3 sequence (P27986 whole entry partner): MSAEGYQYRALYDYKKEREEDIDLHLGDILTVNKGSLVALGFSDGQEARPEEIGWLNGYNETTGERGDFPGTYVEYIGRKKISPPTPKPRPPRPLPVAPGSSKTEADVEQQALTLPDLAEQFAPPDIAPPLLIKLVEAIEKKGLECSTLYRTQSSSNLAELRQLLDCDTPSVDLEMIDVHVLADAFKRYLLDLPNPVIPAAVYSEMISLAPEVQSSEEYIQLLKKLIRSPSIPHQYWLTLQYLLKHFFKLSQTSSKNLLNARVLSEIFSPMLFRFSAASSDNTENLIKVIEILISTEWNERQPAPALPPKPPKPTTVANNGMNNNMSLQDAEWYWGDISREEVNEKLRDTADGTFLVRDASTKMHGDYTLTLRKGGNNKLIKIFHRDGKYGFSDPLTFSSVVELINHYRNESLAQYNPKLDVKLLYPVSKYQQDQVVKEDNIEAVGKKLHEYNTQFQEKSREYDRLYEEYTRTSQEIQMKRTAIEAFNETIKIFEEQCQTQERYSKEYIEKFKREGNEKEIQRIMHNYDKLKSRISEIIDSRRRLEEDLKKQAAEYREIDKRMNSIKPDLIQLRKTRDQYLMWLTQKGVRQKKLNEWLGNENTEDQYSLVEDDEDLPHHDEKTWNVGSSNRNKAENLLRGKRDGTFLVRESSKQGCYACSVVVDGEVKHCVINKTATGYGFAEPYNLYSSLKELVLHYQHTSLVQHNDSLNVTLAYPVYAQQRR
Text: as §1, §2

PI3Kβ = target: T4, PI3Kβ (Homo sapiens, UniProt P42338); assay: PI3 Kinase HTRF assay, PI3Kβ; settings: 10 μM PIP2, 10 μM ATP; read-out: PI3K β IC50
T4 construct: purchased Millipore Corporation 14-603-K
T4 sequence (P42338 whole entry): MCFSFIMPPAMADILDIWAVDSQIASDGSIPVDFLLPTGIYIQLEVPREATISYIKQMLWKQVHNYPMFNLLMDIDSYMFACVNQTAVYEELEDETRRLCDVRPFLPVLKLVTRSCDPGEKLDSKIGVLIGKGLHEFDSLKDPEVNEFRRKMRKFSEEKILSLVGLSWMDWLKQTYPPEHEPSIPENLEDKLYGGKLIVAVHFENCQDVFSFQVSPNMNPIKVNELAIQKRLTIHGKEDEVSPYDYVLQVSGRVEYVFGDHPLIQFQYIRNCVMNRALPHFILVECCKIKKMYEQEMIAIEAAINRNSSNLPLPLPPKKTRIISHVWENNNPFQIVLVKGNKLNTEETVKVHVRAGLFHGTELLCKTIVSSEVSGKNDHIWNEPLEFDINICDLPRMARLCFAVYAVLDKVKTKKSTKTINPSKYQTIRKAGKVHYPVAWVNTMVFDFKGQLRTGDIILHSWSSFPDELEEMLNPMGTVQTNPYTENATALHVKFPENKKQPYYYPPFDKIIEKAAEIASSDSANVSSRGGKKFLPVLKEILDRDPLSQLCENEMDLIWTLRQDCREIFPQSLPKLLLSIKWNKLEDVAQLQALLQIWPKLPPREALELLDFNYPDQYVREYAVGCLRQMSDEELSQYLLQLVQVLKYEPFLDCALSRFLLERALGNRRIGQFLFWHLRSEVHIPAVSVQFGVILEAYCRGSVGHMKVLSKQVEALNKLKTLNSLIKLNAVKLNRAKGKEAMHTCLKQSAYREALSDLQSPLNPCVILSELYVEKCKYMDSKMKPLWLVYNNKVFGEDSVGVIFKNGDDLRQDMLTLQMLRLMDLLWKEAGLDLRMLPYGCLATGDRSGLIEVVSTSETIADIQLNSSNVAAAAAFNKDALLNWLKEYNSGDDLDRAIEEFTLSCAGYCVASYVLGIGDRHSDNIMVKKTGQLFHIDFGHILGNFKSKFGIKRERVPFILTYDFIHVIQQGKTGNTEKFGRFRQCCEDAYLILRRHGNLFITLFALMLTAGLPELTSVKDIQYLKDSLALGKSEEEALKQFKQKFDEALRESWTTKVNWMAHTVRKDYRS
T4 sequence (P27986 whole entry partner): as the sequence (P27986 whole entry partner) above
Text: as §1, §2

T1 sequence (O00329 whole entry): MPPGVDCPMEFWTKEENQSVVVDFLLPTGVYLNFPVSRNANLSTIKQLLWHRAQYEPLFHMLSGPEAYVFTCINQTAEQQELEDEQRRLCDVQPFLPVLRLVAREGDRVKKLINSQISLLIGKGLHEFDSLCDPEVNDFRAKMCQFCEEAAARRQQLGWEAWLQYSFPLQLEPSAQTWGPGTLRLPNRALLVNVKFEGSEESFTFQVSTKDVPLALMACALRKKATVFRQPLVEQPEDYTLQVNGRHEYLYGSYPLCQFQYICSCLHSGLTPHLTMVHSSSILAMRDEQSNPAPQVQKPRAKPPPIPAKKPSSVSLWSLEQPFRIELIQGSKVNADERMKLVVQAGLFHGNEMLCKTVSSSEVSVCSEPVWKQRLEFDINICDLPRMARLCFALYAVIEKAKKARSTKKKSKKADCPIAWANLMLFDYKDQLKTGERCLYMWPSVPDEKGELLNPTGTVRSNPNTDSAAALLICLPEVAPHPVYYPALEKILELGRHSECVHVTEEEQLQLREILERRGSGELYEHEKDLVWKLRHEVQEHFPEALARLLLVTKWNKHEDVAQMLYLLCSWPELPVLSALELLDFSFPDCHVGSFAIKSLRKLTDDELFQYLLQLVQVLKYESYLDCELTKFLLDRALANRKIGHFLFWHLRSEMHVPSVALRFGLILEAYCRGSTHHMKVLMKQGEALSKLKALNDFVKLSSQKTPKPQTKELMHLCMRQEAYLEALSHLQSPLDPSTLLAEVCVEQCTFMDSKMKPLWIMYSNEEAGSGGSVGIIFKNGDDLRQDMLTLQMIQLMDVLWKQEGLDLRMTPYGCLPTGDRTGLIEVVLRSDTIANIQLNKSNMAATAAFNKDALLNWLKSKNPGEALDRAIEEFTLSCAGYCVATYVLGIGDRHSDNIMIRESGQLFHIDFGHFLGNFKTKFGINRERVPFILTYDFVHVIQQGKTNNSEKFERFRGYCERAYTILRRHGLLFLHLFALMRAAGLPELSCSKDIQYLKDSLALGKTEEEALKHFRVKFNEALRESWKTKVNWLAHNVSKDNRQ
T1 sequence (P27986 whole entry partner): as the sequence (P27986 whole entry partner) above

SMILES | IC50 (PI3Kδ) [µM] | IC50 (PI3Kγ) [µM] | IC50 (PI3Kα) [µM] | IC50 (PI3Kβ) [µM]
Cc1nc([C@H](C)Nc2ncnc3[nH]cnc23)cc2cccc(C(=O)N3C4CCC3COC4)c12 [Compound 199] | < 10 | > 10 | > 10 | > 10
C[C@H](Nc1ncnc2cccnc12)c1cc2cccc(-c3cnn(C)c3)c2c(C(=O)N2C3CCC2COC3)n1 [Compound 200] | < 1 | > 10 | > 10 | > 10
C[C@H](Nc1ncnc2[nH]cnc12)c1cc2cccc(-c3cnn(C)c3)c2c(C(=O)N2C3CCC2COC3)n1 [Compound 201] | < 0.1 | < 1 | > 10 | > 10
Cc1nc([C@H](C)Nc2ncnc3[nH]cnc23)cc2cccc(C(=O)N3CCN(C)CC3)c12 [Compound 202] | > 10 | > 10 | > 10 | > 10
C[C@H](Nc1ncnc2[nH]cc(C#N)c12)c1cc2cccc(Cl)c2c(C(=O)N2C3CCC2COC3)n1 [Compound 206] | < 0.1 | < 10 | > 10 | < 10
CC(C)N1CCC(NC(=O)c2nc([C@H](C)Nc3ncnc4scnc34)cc3cccc(Cl)c23)CC1 [Compound 211] | < 1 | > 10 | > 10 | > 10
C[C@H](Nc1ncnc2scnc12)c1cc2cccc(Cl)c2c(C(=O)NCC2CCOCC2)n1 [Compound 216] | < 1 | > 10 | > 10 | > 10
C[C@H](Nc1nc(N)ncc1C(F)(F)F)c1cc2cccc(Cl)c2c(C(=O)N2CCOCC2)n1 [Compound 217] | < 1 | < 10 | > 10 | > 10
C[C@H](Nc1ncnc2cccnc12)c1cc2cccc(Cl)c2c(C(=O)N2CCS(=O)(=O)CC2)n1 [Compound 219] | < 1 | < 1 | > 10 | > 10
CC1CN(C(=O)c2nc([C@H](C)Nc3ncnc4cccnc34)cc3cccc(Cl)c23)CCO1 (some centres unmarked) [Compound 222] | < 1 | < 1 | < 10 | > 10
C[C@H](Nc1ncnc2scnc12)c1cc2cccc(Cl)c2c(C(=O)N(C)C)n1 [Compound 223] | < 1 | < 1 | > 10 | < 10
C[C@H](Nc1ncnc2cccnc12)c1cc2cccc(Cl)c2c(C(=O)N(C)C)n1 [Compound 224] | < 10 | < 1 | > 10 | < 10
C[C@H](Nc1ncnc2cccnc12)c1cc2cccc(Cl)c2c(C(=O)N2CCNC(=O)C2)n1 [Compound 225] | < 1 | < 1 | < 10 | > 10
C[C@H](Nc1ncnc2cccnc12)c1cc2cccc(Cl)c2c(C(=O)N2CCC(F)(F)CC2)n1 [Compound 226] | < 1 | < 10 | > 10 | > 10
C[C@H](Nc1ncnc2cccnc12)c1cc2cccc(Cl)c2c(C(=O)N2CCCCC2)n1 [Compound 230] | < 1 | < 1 | < 10 | > 10
C[C@H](Nc1ncnc2cccnc12)c1cc2cccc(Cl)c2c(C(=O)N2CCCOCC2)n1 [Compound 231] | < 1 | < 10 | < 10 | > 10
C[C@H](Nc1ncnc2cccnc12)c1cc2cccc(Cl)c2c(C(=O)N2CCC(O)CC2)n1 [Compound 233] | < 1 | < 10 | < 10 | > 10
C[C@@H](Nc1ncnc2[nH]cnc12)c1cc2cccc(Cl)c2c(CN2CCCC2)n1 [Compound 239] | > 10 | > 10 | > 10 | > 10
C[C@H](Nc1ncnc2cccnc12)c1cc2cccc(-c3cnn(C)c3)c2c(N2CCN(C)CC2)n1 [Compound 243] | < 1 | < 10 | > 10 | < 10

Further lines, results first:

IC50 (PI3Kδ) [µM] | IC50 (PI3Kγ) [µM] | IC50 (PI3Kα) [µM] | IC50 (PI3Kβ) [µM] | SMILES
< 1 | < 10 | > 10 | > 10 | C[C@H](Nc1ncnc2[nH]cnc12)c1cc2cccc(-c3cnn(C)c3)c2c(CCN2CCOCC2)n1 [Compound 157]
< 0.1 | < 10 | > 10 | > 10 | Cc1nc([C@H](C)Nc2ncnc3[nH]cnc23)cc2cccc(-c3cccnc3)c12 [Compound 170]
< 0.1 | < 10 | < 10 | > 10 | Cc1nc([C@H](C)Nc2ncnc3[nH]cnc23)cc2cccc(-c3cnn(C)c3)c12 [Compound 171]
< 1 | > 10 | > 10 | < 10 | C[C@H](Nc1ccnc2ccnn12)c1cc2cccc(Cl)c2c(OC2CCN(S(C)(=O)=O)CC2)n1 [Compound 174]
< 1 | < 10 | < 10 | > 10 | C[C@H](Nc1ncnc2cccnc12)c1cc2cccc(-c3cnn(C)c3)c2c(C(=O)N2CCOCC2)n1 [Compound 187]
< 0.1 | < 1 | > 10 | > 10 | C[C@H](Nc1ncnc2[nH]cnc12)c1cc2cccc(-c3cnn(C)c3)c2c(Cl)n1 [Compound 193]
< 1 | > 10 | > 10 | > 10 | Cc1nc([C@H](C)Nc2ncnc3[nH]cnc23)cc2cccc(C(=O)N3CCOCC3)c12 [Compound 198]
< 0.1 | < 1 | < 10 | < 10 | C[C@H](Nc1ncnc2[nH]cc(C#N)c12)c1cc2cccc(Cl)c2c(C(=O)N2CCOCC2)n1 [Compound 203]
< 0.1 | < 1 | < 10 | < 10 | C[C@H](Nc1ncnc2[nH]cc(F)c12)c1cc2cccc(Cl)c2c(C(=O)N2CCOCC2)n1 [Compound 205]
< 0.1 | > 10 | < 10 | > 10 | C[C@H](Nc1ncnc2scnc12)c1cc2cccc(Cl)c2c(C(=O)NC2CCNCC2)n1 [Compound 209]
< 0.1 | > 10 | > 10 | > 10 | C[C@H](Nc1ncnc2scnc12)c1cc2cccc(Cl)c2c(C(=O)NC2CCN(C)CC2)n1 [Compound 210]
< 0.1 | < 10 | > 10 | > 10 | C[C@H](Nc1ncnc2scnc12)c1cc2cccc(Cl)c2c(C(=O)NC2CCOC2)n1 (some centres unmarked) [Compound 215]
< 0.1 | < 1 | > 10 | < 10 | C[C@H](Nc1ncnc2scnc12)c1cc2cccc(Cl)c2c(C(=O)N2CCNC(=O)C2)n1 [Compound 218]
< 0.1 | < 1 | > 10 | > 10 | CC1CN(C(=O)c2nc([C@H](C)Nc3ncnc4scnc34)cc3cccc(Cl)c23)CCO1 (some centres unmarked) [Compound 221]
< 0.1 | < 10 | < 10 | < 10 | C[C@H](Nc1ncnc2scnc12)c1cc2cccc(Cl)c2c(C(=O)N2CCCOCC2)n1 [Compound 227]
< 0.1 | < 10 | < 10 | < 1 | C[C@H](Nc1ncnc2scnc12)c1cc2cccc(Cl)c2c(C(=O)N2CCCCC2)n1 [Compound 229]
